This is an account of results in article PMC7137270, “Determination of parecoxib and valdecoxib in rat plasma by UPLC-MS/MS and its application to pharmacokinetics studies” (BMC Pharmacology & Toxicology, 2020).

As usually defined, the AUC(0-inf) is total exposure, with the tail of the curve extrapolated. What is called AUC(0-t) is exposure summed from dosing to a finite time, without extrapolation to infinity. Read a low AUC(0-t) as less exposure. Usually Cmax stands for the highest concentration seen after dosing. By Tmax is commonly meant the time at which the peak concentration occurs. What is called clearance is the volume of plasma or blood freed of the substance per unit of time. A low value points to a low capacity for elimination. Usually half-life stands for how long it takes for the measured level to halve. A higher half-life goes with slow loss.

Data set [1] can be described thus: Stability of analytes in rat plasma (short-term, long-term, freeze/thaw). The data set is classed as in vitro ADME. Conditions: n = 6; for Freeze/thaw (−20 °C to room temperature) RE: three cycles. The method, then: The stability of the samples (including QC and IS) in rat plasma was determined by placing samples (n = 6) in three settings. Of those settings, the short-term stability was determined via leaving the samples at room temperature for 24 h. For long-term stability evaluation, the samples went through 3 weeks of storage at − 20 °C before measurement. The stability of samples after freeze-thaw treatment was assessed by performing freeze/thaw cycles on each sample three times prior to analysis. The fresh samples were prepared as a negative control. The acceptable bias was considered great stability when it was within ±15%. […]

Data set [2] can be described thus: Pharmacokinetic study in rats after sublingual vein administration of parecoxib. The data set is classed as in vivo. Conditions: male, Sprague Dawley, rat plasma, sublingual vein administration of 5 mg/kg PCX, n = 6; for MRT last: read-out: MRT(0-t); for MRT inf: read-out: MRT(0-∞). On the procedure: The average weight range of 200–220 g male Sprague Dawley (SD) was obtained from the laboratory animal center of the Wenzhou Medical University (Wenzhou, China, License No. SCXK [ZJ] 2005–0019). Rats stayed in cages and freely got food and water under a stable temperature range of 24–26 °C and a controllable 12 h light/dark cycle apparatus. Animal protocols were approved by the Institutional animal experimentation Committee of the Wenzhou Medical University. A total of 12 SD rats were separated into two isolated groups, including the experimental group (n = 6) and the control group (n = 6). Fasting was carried out for 12 h before assays, and only water was freely accessible. The rats were treated with […] PCX intravenously, which was equivalent to 56 mg for an individual of 70 kg human body weight (regular range in the clinic is from 40 to 80 mg). 0.3 ml of blood samples were collected and stabilized in heparinized tubes at each given time point (0, 0.083, 0.167, 0.25, 0.5, 0.75, 1, 2, 3, 4, 6, 8, 10, 12 and 24 h). The plasma samples were separated through centrifugation at 3000 r/min for 10 min and carefully collected the supernatant and stored at − 20 °C before analysis. All pharmacokinetic data were analyzed by the DAS (Drug and Statistics) software. All rats were sacrificed by CO2 inhalation.
In the clinic, the recommended dose of PCX was 40 mg per patient, i.m. or i.v., and the total daily dose was not more than 80 mg. In the present study, a dose of 5 mg/kg PCX was injected to rats by i.v., which was equivalent to 56 mg for an individual of 70 kg body weight (range of 40–80 mg). The UPLC-MS/MS has effectively monitored the pharmacokinetic changes after administration of […] PCX. Further, the pharmacokinetic parameters were figured out by using the DAS 3.0 software.

On the set-up of data set [3]: method as in PMID 11519767. Conditions: control of acute pain, specific dose of PCX; cited from earlier work.
The test system of data set [4] is plasma proteins. Conditions: cited from earlier work.
On the set-up of data set [5]: method as in PMID 29843006. To be noted: cited from earlier work.

The structures appear in SMILES notation.

Turning to `Cc1ccc(-c2cc(C(F)(F)F)nn2-c2ccc(S(N)(=O)=O)cc2)cc1` [Celecoxib], in data set [1] (200 ng/mL), the “Long-term (−20 °C, 3 weeks) RE” value is given as −1.3%; the “Short-term (room temperature, 24 h) RE” value was found to be 7.5%; the “Freeze/thaw (−20 °C to room temperature) RE” value (“Freeze/thaw” below) is given as 5.8%.
`CCC(=O)NS(=O)(=O)c1ccc(-c2c(-c3ccccc3)noc2C)cc1` [Parecoxib]: in data set [1] (100 ng/mL), the “Long-term (−20 °C, 3 weeks) RE” value was 14.2%; the “Short-term (room temperature, 24 h) RE” value stood at 13.0%; the “Freeze/thaw” value was found to be 14.9%. Also, in data set [1] (800 ng/mL), the “Long-term (−20 °C, 3 weeks) RE” value is 12.7%; the “Short-term (room temperature, 24 h) RE” value was 10.2%; the “Freeze/thaw” value worked out at 14.2%. In addition, in data set [1] (8000 ng/mL), the “Long-term (−20 °C, 3 weeks) RE” value is reported as 14.3%; the “Short-term (room temperature, 24 h) RE” value is −10.5%; the “Freeze/thaw” value is recorded as −7.9%. Moreover, in data set [2], the AUC(0-inf) was determined as 2110 ± 283 ng·h/mL, the AUC(0-t) was determined as 2110 ± 282 ng·h/mL, the highest level (Cmax) was 5070 ± 1210 ng/mL and the Tmax was found to be 6 min. Also, in data set [2], the clearance is 40 mL/min/kg, the half-life is 84 ± 30 min, the MRT last was found to be 0.4 ± 0.1 h and the MRT inf worked out at 0.4 ± 0.1 h. In addition, in data set [3], the onset of analgesia was 7 to 14 min and the “time to peak analgesic effect” value is reported as at most 2 h.
For the molecule `Cc1onc(-c2ccccc2)c1-c1ccc(S(N)(=O)=O)cc1` [Valdecoxib], the “bound to plasma proteins” value in data set [4] was 98%. Further, in data set [1] (5 ng/mL), the “Long-term (−20 °C, 3 weeks) RE” value is on record as −1.4%; the “Short-term (room temperature, 24 h) RE” value is −6.7%; the “Freeze/thaw” value is 5.2%. Moreover, in data set [1] (40 ng/mL), the “Long-term (−20 °C, 3 weeks) RE” value came to 13.2%; the “Short-term (room temperature, 24 h) RE” value is on record as 12%; the “Freeze/thaw” value amounted to 14.2%. In addition, in data set [1] (400 ng/mL), the “Long-term (−20 °C, 3 weeks) RE” value was 3.2%; the “Short-term (room temperature, 24 h) RE” value stood at 3.2%; the “Freeze/thaw” value is reported as 9.5%. In data set [2], the AUC(0-inf) is 4370 ± 1530 ng·h/mL, the AUC(0-t) is 4190 ± 1590 ng·h/mL, the Cmax was found to be 701 ± 92.6 ng/mL and the Tmax was 48 ± 12 min. Also, in data set [2], the clearance was 20 mL/min/kg, the half-life is 186 ± 66 min, the MRT last was 4.1 ± 1 h and the MRT inf stood at 4.8 ± 1.1 h. The “fraction of VCX in the circulation metabolized to hydroxylated VCX” value in data set [5] was “approximately 10%”.
